Assay results: patent US11685744B2, “CDK inhibitors and their use as pharmaceuticals” (Prelude Therapeutics, Incorporated, priority 2020, dated 2023)

How the values were obtained:
CDK4/Cyclin D1 = CDK4/Cyclin D1 (Homo sapiens (Human), UniProt P11802); experiment: CDK4/CyclinD1 enzymatic activity assay (TR-FRET); type: biochemical; conditions: ATP 2 mM, read-out: CDK4_D1 IC50
Procedure, shortened: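 Insect-cell CDK4/Cyclin D1 (1 nM) with ULight-4E-BP1 (100 nM) and 2 mM ATP in HEPES pH 7.4 buffer, preincubated 20 min with compound (9-dose, 3-fold dilutions); 10 mM MgCl2 started the reaction, run 60 min at 37 °C. EDTA/Eu-anti-phospho-4E-BP1 TR-FRET detection; IC50 from 4-parameter Hill fit.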

CDK6/Cyclin D1 = CDK6/Cyclin D1 (Homo sapiens (Human), UniProt Q00534); experiment: CDK6/CyclinD1 enzymatic activity assay (TR-FRET); type: biochemical; conditions: ATP 250 μM, read-out: CDK6_D1 IC50
Description: CDK6/CyclinD1 Enzymatic Activity Assay
The inhibitory activity of compounds was evaluated in vitro using TR-FRET assay with white 384-well low volume microplate (Greiner Bio-One). CDK6/Cyclin D1 catalyzed phosphorylation of peptide in the presence and absence of compounds was measured and used in IC50 determination. Recombinant protein complex CDK6/Cyclin D1, expressed from insect cell, was purchased from ProQinase. Testing compounds were dissolved in DMSO at 0.1 mM and tested in 9-dose IC50 mode. The reaction mixture was prepared by mixing CDK6/Cyclin D1 (1 nM final), ULight-4E-BP1 (100 nM final, Perkinelmer, TRF0128-D), and ATP (250 μM final) in assay buffer (20 mM of HEPES pH 7.4, 1 mM of EGTA, 0.05% BSA, 0.005% Tween 20, and 1 mM TCEP). The compound of interest in DMSO was added to each well in 3-fold serial dilution by dispenser (TECAN D300E). After 20 minutes preincubation at room temperature, 0.1 μL MgCl2 (10 mM final) was added to initiate the reaction. Following a 60 minutes incubation at 37° C., the reaction was stopped by addition of 2 μL of quenching buffer consisting of Lance detection buffer (Perkinelmer CR97-100C), 2 nM LANCE Ultra Europium-anti-P-4E-BP1 (Perkinelmer, TRF0216-D), 10 mM EDTA, and incubate at room temperature for additional 60 minutes in dark. The reaction signal was measured by Envision multimode plate reader (PerkinElmer, 2102-0010). IC50 values were determined by fitting the data to the standard 4 parameters with Hill Slope using GraphPad Prism software.

[1] = tested on: MCF7 adenocarcinoma cell line; experiment: Cell proliferation studies in MCF7 cells (ATP-Lite, 10 days); type: cell-based; conditions: Homo sapiens, 240 h, read-out: PROLIFERATION_CTG_MCF7 IC50
Procedure, shortened: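 Cells were seeded at 100 or 200 per well in DMEM with 10% FBS and dosed in quadruplicate over a 9-point 3-fold dilution. Incubation lasted 10 days at 37 °C, with media exchange and re-dosing on day 5. Viability was read by ATP-Lite luminescence and normalised to background and DMSO, giving IC50.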

[2] = Brain-to-plasma ratio (Kp) determination in Sprague-Dawley rats; conditions: male, rat, po, 10 mg/kg
Description: The brain-to-plasma ratio (Kp) was determined in male Sprague-Dawley rats (7-9 weeks old) four hours after a single oral dose. Rats were acclimated and given free access to standard rodent chow and water throughout the entire study. Test articles were formulated as a solution at 0.3, 0.4, 0.5, or 1.0 mg/mL in a vehicle comprised of 10:15:75 (v:v:v) dimethylacetamide (DMA):Solutol HS15:water and delivered orally at a rate of 10 mL/kg to three rats to achieve final doses of 3, 4, 5, or 10 mg/kg, respectively. At 4 hours post-dose, blood samples were collected via jugular vein cannula into tubes containing K2EDTA as the anticoagulant and stored on ice. Blood samples were then centrifuged at 4° C. at 6000 rpm for 5 minutes, and the resulting plasma was placed into tubes and stored frozen at −80° C. until analysis. Whole brain samples were also collected at 4 hours post-dose. The weight of each brain was measured and recorded, and samples were immediately stored on dry ice. Brain samples were then transferred to storage at −80° C. until analysis.
Prior to analysis, brain samples were combined with water (4 mL/1 gram of brain) and homogenized. Prior to injection, plasma and brain homogenate samples and standards were prepared for analysis by precipitation with acetonitrile or 1:1 (v:v) methanol:acetonitrile. Samples were then thoroughly mixed, centrifuged at 4000 rpm for 15 minutes, and the resulting supernatant was transferred for analysis. Test article concentrations in plasma and brain homogenate were then determined by LC-MS/MS and quantified against calibration standards prepared to known concentrations in matched blank (analyte-free) biological matrix. The Kp was then determined by dividing the dilution-corrected brain concentration by the plasma concentration from each rat. A brain density of 1 gram/mL was assumed for all calculations.

[3] = brain (homogenate) versus plasma

Sequence of CDK6/Cyclin D1 (Q00534 whole entry): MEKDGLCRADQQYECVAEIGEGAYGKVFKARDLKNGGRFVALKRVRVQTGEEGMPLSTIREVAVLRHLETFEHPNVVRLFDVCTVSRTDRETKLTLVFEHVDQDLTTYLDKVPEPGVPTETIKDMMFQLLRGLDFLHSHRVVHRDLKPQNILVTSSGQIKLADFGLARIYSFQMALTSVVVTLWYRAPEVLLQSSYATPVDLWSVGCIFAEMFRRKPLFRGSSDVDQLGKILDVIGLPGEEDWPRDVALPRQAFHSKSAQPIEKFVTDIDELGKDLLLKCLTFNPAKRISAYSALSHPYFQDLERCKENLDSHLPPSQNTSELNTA
Sequence of CDK6/Cyclin D1 (P24385 whole entry partner): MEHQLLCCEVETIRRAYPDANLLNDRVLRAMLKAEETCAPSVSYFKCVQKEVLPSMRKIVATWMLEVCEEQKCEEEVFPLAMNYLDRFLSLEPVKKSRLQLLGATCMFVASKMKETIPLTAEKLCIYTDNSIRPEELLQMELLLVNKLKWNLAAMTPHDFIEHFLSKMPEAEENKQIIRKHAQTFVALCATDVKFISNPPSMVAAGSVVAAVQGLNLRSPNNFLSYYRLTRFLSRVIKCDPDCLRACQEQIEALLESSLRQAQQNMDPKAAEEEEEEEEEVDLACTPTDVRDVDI
Sequence of CDK4/Cyclin D1 (P11802 whole entry): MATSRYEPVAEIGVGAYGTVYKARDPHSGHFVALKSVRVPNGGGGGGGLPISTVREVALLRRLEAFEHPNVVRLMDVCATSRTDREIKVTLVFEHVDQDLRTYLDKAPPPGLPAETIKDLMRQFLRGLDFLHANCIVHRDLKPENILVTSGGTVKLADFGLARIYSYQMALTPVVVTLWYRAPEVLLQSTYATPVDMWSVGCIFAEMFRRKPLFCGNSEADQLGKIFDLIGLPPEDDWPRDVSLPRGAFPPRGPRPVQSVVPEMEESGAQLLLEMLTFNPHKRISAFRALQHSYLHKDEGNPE
Sequence of CDK4/Cyclin D1 (P24385 whole entry partner): as the sequence (P24385 whole entry partner) above

Row | IC50 (CDK4/Cyclin D1) | IC50 (CDK6/Cyclin D1) | IC50 [1] | Kp at 4 h [2, 3] | Kp at 4 h ([2]; brain / plasma) | SMILES
1 | ≤ 20 nM | ≤ 20 nM | 20 to 200 nM | 1 to 3 |  | CCN1CC2(C1)CN(c1ccc(Nc3ncc(F)c(-c4sc5c(C(C)C)cn(C)c(=O)c5c4C)n3)nc1)C2 [Example 57, 2-(2-((5-(6-Ethyl-2,6-diazaspiro[3.3]heptan-2-yl)pyridin-2-yl)amino)-5-fluoropyrimidin-4-yl)-7-isopropyl-3,5-dimethylthieno[3,2-c]pyridin-4(5H)-one]
2 | ≤ 20 nM | ≤ 20 nM | ≤ 20 nM | < 1 |  | Cc1c(-c2nc(Nc3ccc(C4CCN(C)CC4)cn3)ncc2F)sc2c(C(C)C)c[nH]c(=O)c12 [Example 60, 2-(5-Fluoro-2-((5-(1-methylpiperidin-4-yl)pyridin-2-yl)amino)pyrimidin-4-yl)-7-isopropyl-3-methylthieno[3,2-c]pyridin-4(5H)-one]
3 | ≤ 20 nM | ≤ 20 nM | ≤ 20 nM | 1 to 3 |  | Cc1c(-c2nc(Nc3ccc(N4CC5(CCN(C)C5)C4)cn3)ncc2F)sc2c(C(C)C)cn(C)c(=O)c12 [Example 61, 2-(5-Fluoro-2-((5-(6-methyl-2,6-diazaspiro[3.4]octan-2-yl)pyridin-2-yl)amino)pyrimidin-4-yl)-7-isopropyl-3,5-dimethylthieno[3,2-c]pyridin-4(5H)-one]
4 | 20 to 200 nM | 20 to 200 nM | 200 to 2000 nM | < 1 |  | Cc1nc2cc(-c3nc(Nc4ccc(CN5CCN(CC(F)F)CC5)cn4)ncc3F)sc2n1C(C)C [Example 64, N-[5-[[4-(2,2-Difluoroethyl)piperazin-1-yl]methyl]pyridin-2-yl]-5-fluoro-4-(2-methyl-3-propan-2-ylthieno[2,3-d]imidazol-5-yl)pyrimidin-2-amine]
5 | ≤ 20 nM | 20 to 200 nM | 20 to 200 nM | 1 to 3 |  | Cc1c(-c2nc(Nc3ccc(N4CCC(N(C)C)C4)cn3)ncc2F)sc2c1nc(C)n2C(C)C (centres unmarked) [Example 73, N-[5-[3-(Dimethylamino)pyrrolidin-1-yl]pyridin-2-yl]-4-(2,6-dimethyl-3-propan-2-ylthieno[2,3-d]imidazol-5-yl)-5-fluoropyrimidin-2-amine]

Second part, the molecule before the results:

Row | SMILES | IC50 (CDK4/Cyclin D1) | IC50 (CDK6/Cyclin D1) | IC50 [1] | Kp at 4 h [2, 3] | Kp at 4 h ([2]; brain / plasma)
6 | CCN1CCN(c2ccc(Nc3ncc(F)c(-c4sc5c(nc(C)n5C5CCCC5)c4C)n3)nc2)CC1 [Example 1, 4-(3-Cyclopentyl-2,6-dimethyl-3H-thieno[2,3-d]imidazol-5-yl)-N-(5-(4-ethylpiperazin-1-yl)pyridin-2-yl)-5-fluoropyrimidin-2-amine] | ≤ 20 nM | 20 to 200 nM | 20 to 200 nM | 1 to 3 | 
7 | CCN1CCN(c2ccc(Nc3ncc(F)c(-c4sc5c(nc(C)n5C(C)C)c4C)n3)nc2)CC1 [Example 2, N-(5-(4-Ethylpiperazin-1-yl)pyridin-2-yl)-5-fluoro-4-(3-isopropyl-2,6-dimethyl-3H-thieno[2,3-d]imidazol-5-yl)pyrimidin-2-amine] | ≤ 20 nM | ≤ 20 nM | ≤ 20 nM | 1 to 3 | 
8 | CCN1CCN(Cc2ccc(Nc3ncc(F)c(-c4sc5c(nc(C)n5C(C)C)c4C)n3)nc2)CC1 [Example 3, N-(5-((4-Ethylpiperazin-1-yl)methyl)pyridin-2-yl)-5-fluoro-4-(3-isopropyl-2,6-dimethyl-3H-thieno[2,3-d]imidazol-5-yl)pyrimidin-2-amine] | ≤ 20 nM | 20 to 200 nM | 20 to 200 nM | < 1 | 
9 | CCN1CCN(c2ccc(Nc3ncc(F)c(-c4sc5c(nc(C)n5C5CCC5)c4C)n3)nc2)CC1 [Example 4, 4-(3-Cyclobutyl-2,6-dimethylthieno[2,3-d]imidazol-5-yl)-N-[5-(4-ethylpiperazin-1-yl)pyridin-2-yl]-5-fluoro-pyrimidin-2-amine] | ≤ 20 nM | ≤ 20 nM | 20 to 200 nM | 1 to 3 | 
10 | Cc1c(-c2nc(Nc3ccc(N4CCN(C)CC4)cn3)ncc2F)sc2c1nc(C)n2C(C)C [Example 9, 5-Fluoro-4-(3-isopropyl-2,6-dimethyl-3H-thieno[2,3-d]imidazol-5-yl)-N-(5-(4-methylpiperazin-1-yl)pyridin-2-yl)pyrimidin-2-amine] | ≤ 20 nM | ≤ 20 nM | ≤ 20 nM | 1 to 3 | 
11 | CCN1CC2(C1)CN(c1ccc(Nc3ncc(F)c(-c4cc5nccc(C(C)C)c5s4)n3)nc1)C2 [Example 23, N-[5-(6-Ethyl-2,6-diazaspiro[3.3]heptan-2-yl)pyridin-2-yl]-5-fluoro-4-(7-propan-2-ylthieno[3,2-b]pyridin-2-yl)pyrimidin-2-amine] | ≤ 20 nM | 20 to 200 nM | 20 to 200 nM | > 3 | 
12 | CCN1CCN(c2ccc(Nc3ncc(F)c(-c4cc5c(s4)c(C(C)C)cc[n+]5[O-])n3)nc2)CC1 [Example 50, N-[5-(4-Ethylpiperazin-1-yl)pyridin-2-yl]-5-fluoro-4-(4-oxido-7-propan-2-ylthieno[3,2-b]pyridin-4-ium-2-yl)pyrimidin-2-amine] | ≤ 20 nM | ≤ 20 nM | ≤ 20 nM | 1 to 3 | 
13 | Cc1c(-c2nc(Nc3ccc(N4CCN(C)CC4)cn3)ncc2F)sc2c(C(C)C)cn(C)c(=O)c12 [Example 51, 2-[5-Fluoro-2-[[5-(4-methylpiperazin-1-yl)pyridin-2-yl]amino]pyrimidin-4-yl]-3,5-dimethyl-7-propan-2-ylthieno[3,2-c]pyridin-4-one] | ≤ 20 nM | ≤ 20 nM | 20 to 200 nM |  | > 3
14 | CCN1CC2(C1)CN(c1ccc(Nc3ncc(F)c(-c4sc5c(nc(C)n5C(C)C)c4C)n3)nc1)C2 [Example 52, 4-(2,6-Dimethyl-3-propan-2-ylthieno[2,3-d]imidazol-5-yl)-N-[5-(6-ethyl-2,6-diazaspiro[3.3]heptan-2-yl)pyridin-2-yl]-5-fluoropyrimidin-2-amine] | ≤ 20 nM | ≤ 20 nM | ≤ 20 nM | 1 to 3 | 
15 | CCN1CCN(C(=O)c2ccc(Nc3ncc(F)c(-c4cc5nc(C)n(C(C)C)c5s4)n3)nc2)CC1 [Example 54, (4-Ethylpiperazin-1-yl)-[6-[[5-fluoro-4-(2-methyl-3-propan-2-ylthieno[2,3-d]imidazol-5-yl)pyrimidin-2-yl]amino]pyridin-3-yl]methanone] | ≤ 20 nM | 20 to 200 nM | 20 to 200 nM | < 1 | 
16 | CCN1CC2(C1)CN(c1ccc(Nc3ncc(F)c(-c4sc5c(C(C)C)n(C)nc5c4C)n3)nc1)C2 [Example 55, 4-(2,6-Dimethyl-3-propan-2-ylthieno[3,2-c]pyrazol-5-yl)-N-[5-(6-ethyl-2,6-diazaspiro[3.3]heptan-2-yl)pyridin-2-yl]-5-fluoropyrimidin-2-amine] | ≤ 20 nM | ≤ 20 nM | 20 to 200 nM | > 3 | 
17 | Cc1c(-c2nc(Nc3ccc(C4CCN(C)CC4)cn3)ncc2F)sc2c(C(C)C)cn(C)c(=O)c12 [Example 56, 2-(5-Fluoro-2-((5-(1-methylpiperidin-4-yl)pyridin-2-yl)amino)pyrimidin-4-yl)-7-isopropyl-3,5-dimethylthieno[3,2-c]pyridin-4(5H)-one] | ≤ 20 nM | ≤ 20 nM | 20 to 200 nM | > 3 | 
